Measured values: US4455315A, “N-(Difluoromethoxy substituted phenyl)-dichloromaleimides used in agricultural and horticultural fungicidal methods” (Showa Denko Kabushiki Kaisha, priority 1980, dated 1984)

Columns and labels:
[1] = tested on: potted young pears (variety: Niju-seiki); experiment: Phytotoxicity of treating compound, Pear Black Spot test; conditions: 500 ppm, damaged area on leaves
Protocol: (§1) The resulting solution is sprayed on unfolded leaves of potted young pears (variety: Niju-seiki) in an amount corresponding to 600 l/10a per pot. After air-drying, the unfolded leaves are inoculated with Alternaria kikuchiana, by spraying a suspension of conidia thereof containing 30 conidia per microscopic field (magnification: X200).
(§2) After inoculation, the potted young pears are allowed to stand at a temperature of 27° C. in a moist room for one day and then transferred to a greenhouse. Six days after inoculation, the leaf area infested by pear black spot, i.e., the area of pathologic spots on a leaf is examined on 5 unfolded leaves per pot and an average infestation rate is then calculated.
*The phytotoxicity of the treating compound is evaluated according to the

[2] = tested on: Alternaria kikuchiana; experiment: Pear Black Spot-controlling Test; conditions: 500 ppm, six days after inoculation
Protocol: Pear Black Spot (Alternaria kikuchiana)-controlling Test
as §1, §2

[3] = tested on: potted young oranges (variety: Unshu); experiment: Phytotoxicity of treating compound, Citrus Melanose test; conditions: 500 ppm
[4] = tested on: Diaporthe citri; experiment: Citrus Melanose-controlling Test; type: in vivo; conditions: 500 ppm; for Infested Leaves (%): 24 days after inoculation; for Infestation Rate / Number of Leaves Showing Infestation Index 0 / Number of Leaves Showing Infestation Index 1 / Number of Leaves Showing Infestation Index 2 / Number of Leaves Showing Infestation Index 3 / Number of Leaves Showing Infestation Index 4: 24 days; for Infestation Rate: (Σnf/4N)×100; for Number of Leaves Showing Infestation Index 0: index 0 = 0-25% infested area; for Number of Leaves Showing Infestation Index 1: index 1 = 26-50% infested area; for Number of Leaves Showing Infestation Index 2: index 2 = 51-75% infested area; for Number of Leaves Showing Infestation Index 3: index 3 = 76-90% infested area; for Number of Leaves Showing Infestation Index 4: index 4 = 91-100% infested area
[5] = tested on: Alternaria kikuchiana; experiment: Spore-germination Inhibiting Test; type: cell-based; conditions: 10 ppm, 27° C., 20 hours
Protocol: Spore-germination Inhibiting Test for Alternaria kukuchiana An apricot medium is inoculated with Alternaria kikuchiana and incubated at a temperature of 27° C. for 7-10 days to form conidia on the medium. […] 0.02 Ml of the prepared spore suspension containing the compound according to the present invention is dropped on a slide glass and incubated at a temperature of 27° C. under moist conditions for 20 hours. Thereafter, whether or not the spores germinate is examined under a microscope and the spore-germination rate is then calculated.

[6] = tested on: potted young oranges (variety: Unshu); experiment: Phytotoxicity of treating compound, residual activity test; conditions: 1000 ppm, 23 mm/hr of rain
[7] = tested on: Diaporthe citri; experiment: Test of Residual Activity against Citrus Melanose; type: in vivo; conditions: 1000 ppm, 23 mm/hr of rain; for Infested Leaves (%): 24 days after inoculation; for Infestation Rate: 24 days, (Σnf/4N)×100; for Number of Leaves Showing Each Infestation Index: 0: index 0 = 0-25% infested area; for Number of Leaves Showing Each Infestation Index: 1: index 1 = 26-50% infested area; for Number of Leaves Showing Each Infestation Index: 2: index 2 = 51-75% infested area; for Number of Leaves Showing Each Infestation Index: 3: index 3 = 76-90% infested area; for Number of Leaves Showing Each Infestation Index: 4: index 4 = 91-100% infested area

SMILES	Phytotoxicity of Treating Compound [1]	Average Infestation Rate (%) (Based on infested area) [2]	Phytotoxicity of Treating Compound [3]	Infested Leaves (%) [4] [%]	Infestation Rate [4]	Number of Leaves Showing Infestation Index 0 [4] [leaves]	Number of Leaves Showing Infestation Index 1 [4] [leaves]	Number of Leaves Showing Infestation Index 2 [4] [leaves]	Number of Leaves Showing Infestation Index 3 [4] [leaves]	Number of Leaves Showing Infestation Index 4 [4] [leaves]	Spore-germination Rate (%) [5] [%]	Phytotoxicity of Treating Compound [6]	Infested Leaves (%) [7] [%]	Infestation Rate [7]	Number of Leaves Showing Each Infestation Index: 0 [7] [leaves]	Number of Leaves Showing Each Infestation Index: 1 [7] [leaves]	Number of Leaves Showing Each Infestation Index: 2 [7] [leaves]	Number of Leaves Showing Each Infestation Index: 3 [7] [leaves]	Number of Leaves Showing Each Infestation Index: 4 [7] [leaves]
CC(C)NC(=O)N1CC(=O)N(c2cc(Cl)cc(Cl)c2)C1=O [iprodione, 1-Isopropylcarbamoyl-3-(3',5'-dichlorophenyl)-hydantoin]	- (0%)	11																	
O=C1C=CC(=O)N1c1ccccc1OC(F)F [compound 4]	± (1-5%)	15	- (0%)	1.0	0.2	218	2	0	0	0	7	+ (6-25%)	82	30	30	82	43	10	0
[Cu+2].[O-]c1cccc2cccnc12.[O-]c1cccc2cccnc12 [oxinecopper, 8-Hydroxyquinoline-Cu]												± (1-5%)	81	26	35	113	37	2	0
O=C1C(Cl)=C(Cl)C(=O)N1c1ccccc1OC(F)F [compound 1, 2,3-dichloro-N-(o-difluoromethoxyphenyl)maleimide]	± (1-5%)	9	- (0%)	0.5	0.1	221	1	0	0	0	7	± (1-5%)	22	7	122	27	6	1	0
COc1ccccc1N1C(=O)C(Cl)=C(Cl)C1=O [compound 7]	++ (26-50%)	32	+ (6-25%)	98	43	5	85	111	32	0	75	+ (6-25%)	29	9	115	36	11	1	0
COc1cccc(N2C(=O)C(Cl)=C(Cl)C2=O)c1 [compound 8]	± (1-5%)	20	- (0%)	10	3.3	109	14	7	1	0	25	- (0%)	78	31	35	58	61	7	0
O=C1C=CC(=O)N1c1ccc(OC(F)F)cc1 [compound 6]	++ (26-50%)	36	+ (6-25%)	98	43	257	110	103	44	0	4	+ (6-25%)	91	34	15	86	45	13	0
O=C1C=CC(=O)N1c1cccc(OC(F)F)c1 [compound 5]	+++ (≥51%)	55	++ (26-50%)	85	43	33	63	71	30	18	5	++ (26-50%)	87	43	22	43	72	28	7
O=C1C(Cl)=C(Cl)C(=O)N1c1cccc(OC(F)F)c1 [compound 2, 2,3-dichloro-N-(m-difluoromethoxyphenyl)maleimide]	± (1-5%)	9	- (0%)	0.5	0.1	210	1	0	0	0	0	± (1-5%)	2	0.5	181	4	0	0	0
COc1ccc(N2C(=O)C(Cl)=C(Cl)C2=O)cc1 [compound 9]	± (1-5%)	28	- (0%)	98	43	5	86	115	30	0	9	- (0%)	36	12	113	45	18	1	0
